Experimental data from article PMC7826463, “Pamiparib dose escalation in Chinese patients with non‐mucinous high‐grade ovarian cancer or advanced triple‐negative breast cancer” (Cancer Medicine, 2020).
Several values for one entry are separate records, joined by “and”; a condition that tells them apart may be missing. Equal entries are not always repeated. Entries after “also recorded” stand apart in the source; their conditions may differ.

Tested on: Chinese patients with advanced HGOC or TNBC
Assay: Safety/tolerability (adverse events per NCI-CTCAE v4.03, DLTs) in phase 1 dose escalation (NCT03333915)
Type: in vivo
Description: This phase 1/2, open‐label, multicenter study assessed the safety and antitumor activity of pamiparib in Chinese patients ≥18 years with advanced solid tumors whose disease progressed despite standard therapy or for which there is no standard therapy. Phase 1 was a dose‐escalation study, with a 3 + 3 design, that evaluated the single‐agent safety/tolerability, pharmacokinetic (PK) profile, and preliminary antitumor activity of pamiparib and confirmed the RP2D in Chinese patients (Figure 1). The phase 2 dose‐expansion component of this study is investigating the single‐agent antitumor activity and safety/tolerability of pamiparib.
In phase 1, patients received pamiparib at 20, 40, and 60 mg BID dose levels. The starting dose for pamiparib (20 mg BID) was selected as one‐third of the RP2D (60 mg BID) and one‐fourth of the MTD (80 mg BID), which were determined in the FIH study. […] Safety evaluations, including dose‐limiting toxicities (DLTs), of ≥3 patients completing one cycle of treatment at a specific dose level were required before proceeding to the next cohort with a higher dose level. Patients could continue the study treatment in 21‐day cycles and subsequent cycles at the discretion of the investigator.
The primary objective in phase 1 was to evaluate the safety and tolerability of pamiparib. Safety and tolerability endpoint assessments were based on monitoring of treatment‐emergent adverse events (AEs), in addition to vital signs, electrocardiograms, physical examinations, and clinical laboratory results. The incidence and severity of all AEs and incidence of serious AEs were assessed according to the National Cancer Institute‐Common Terminology Criteria for Adverse Events v4.03.
Approximately 14 to 18 evaluable patients were expected to enroll in the phase 1 part of the study. The safety population included all patients who received ≥1 dose of pamiparib. The PK population included all patients for whom valid pamiparib PK parameters could be estimated. Antitumor activity per RECIST v1.1 was assessed in all evaluable patients. Patients were considered response evaluable if they had measurable disease at baseline per RECIST v1.1 and had ≥1 post‐baseline tumor assessment, unless treatment had been discontinued due to clinical progression or death prior to tumor assessment. The population evaluable for CA‐125 response included patients in the safety population with baseline CA‐125 ≥2 x upper limit of normal.

Compound: C[C@]12CCCN1CC1=NNC(=O)c3cc(F)cc4[nH]c2c1c34 [pamiparib, Pamiparib]
- Treatment-related adverse event Decreased white blood cell count, Grade ≥3 (60 mg BID (n = 7)): 2 (28.6) n (%)
- Treatment-related adverse event Diarrhea, All Grades (60 mg BID (n = 7)): 2 (28.6) n (%)
- Treatment-related adverse event Diarrhea, Grade ≥3 (60 mg BID (n = 7)): 0 n (%)
- Treatment-related adverse event Increased GGT, All Grades (60 mg BID (n = 7)): 1 (14.3) n (%)
- Treatment-related adverse event Increased GGT, Grade ≥3 (60 mg BID (n = 7)): 0 n (%)
- Treatment-related adverse event Increased conjugated bilirubin, All Grades (60 mg BID (n = 7)): 2 (28.6) n (%)
- Treatment-related adverse event Increased conjugated bilirubin, Grade ≥3 (60 mg BID (n = 7)): 0 n (%)
- Treatment-related adverse event Nausea, All Grades (60 mg BID (n = 7)): 5 (71.4) n (%)
- Treatment-related adverse event Nausea, Grade ≥3 (60 mg BID (n = 7)): 1 (14.3) n (%)
- Treatment-related adverse event Prolonged electrocardiogram QT, All Grades (60 mg BID (n = 7)): 2 (28.6) n (%)
- Treatment-related adverse event Prolonged electrocardiogram QT, Grade ≥3 (60 mg BID (n = 7)): 0 n (%)
- Treatment-related adverse event Somnolence, All Grades (60 mg BID (n = 7)): 1 (14.3) n (%)
- Treatment-related adverse event Somnolence, Grade ≥3 (60 mg BID (n = 7)): 0 n (%)
- Treatment-related adverse event Tachycardia, All Grades (60 mg BID (n = 7)): 2 (28.6) n (%)
- Treatment-related adverse event Tachycardia, Grade ≥3 (60 mg BID (n = 7)): 0 n (%)
- Treatment-related adverse event Vomiting, All Grades (60 mg BID (n = 7)): 2 (28.6) n (%)
- Treatment-related adverse event Vomiting, Grade ≥3 (60 mg BID (n = 7)): 1 (14.3) n (%)
- Discontinued treatment: Adverse event (60 mg BID (n=7), count (percent)): 2 (28.6)
- Tolerability (20 to 60 mg BID, Chinese patients): generally well tolerated
- Grade 3 TRAE: anemia (N = 15): 2 n
- Grade 4 or 5 TRAEs (N = 15): No grade 4 or 5 TRAEs
- Grade ≥4 AEs (N = 15): no grade ≥4 AEs
- Patients who experienced a serious AE (N = 15): three
- Patients who experienced ≥1 AE considered related to pamiparib (N = 15): 100%
- Serious AE: abdominal infection (N = 15): 1 n
- Serious AE: intestinal obstruction (N = 15): 1 n
- Serious AE: pleural effusion (N = 15): 1 n
- Serious AEs considered related to study treatment (N = 15): none and no DLTs or serious AEs considered related to pamiparib
- Patients who experienced grade ≥3 AEs (N = 15 (10 patients), all causality): 67%
- Patients who experienced ≥1 TRAE of grade 3 severity (N = 15 (six patients)): 40%
- AE of any grade: asthenia (N = 15, all causality): 80%
- AE of any grade: decreased appetite (N = 15, all causality): 60%
- AE of any grade: decreased white blood cell count (N = 15, all causality): 67%
- AE of any grade: nausea (N = 15, all causality): 80%
- Grade ≥3 AE: anemia (N = 15, all causality): 27%
- Grade ≥3 AE: decreased hemoglobin (N = 15, all causality): 20%
- Patients who experienced ≥1 AE of any grade (N = 15, all causality): 15 patients
- Treatment-related AE: asthenia (N = 15, any grade): 80%
- Treatment-related AE: nausea (N = 15, any grade): 80%
- Recommended phase 2 dose (RP2D) confirmed in Chinese patients (PO): 60 mg BID
- Treatment-related adverse event Asthenia, All Grades (Total (N = 15)): 12 n (%) and 12 (80.0) n (%)
- Treatment-related adverse event Asthenia, Grade ≥3 (Total (N = 15)): 0 n (%)
- Treatment-related adverse event Decreased appetite, All Grades (Total (N = 15)): 9 (60.0) n (%)
- Treatment-related adverse event Decreased appetite, Grade ≥3 (Total (N = 15)): 0 n (%)
- Treatment-related adverse event Decreased hemoglobin, All Grades (Total (N = 15)): 6 (40.0) n (%)
- Treatment-related adverse event Decreased hemoglobin, Grade ≥3 (Total (N = 15)): 3 n (%) and 3 (20) n (%)
- Treatment-related adverse event Decreased neutrophil count, All Grades (Total (N = 15)): 8 (53.3) n (%)
- Treatment-related adverse event Decreased neutrophil count, Grade ≥3 (Total (N = 15)): 2 n (%) and 2 (13) n (%)
- Treatment-related adverse event Decreased platelet count, All Grades (Total (N = 15)): 3 (20.0) n (%)
- Treatment-related adverse event Decreased platelet count, Grade ≥3 (Total (N = 15)): 1 n (%) and 1 (7) n (%)
- Treatment-related adverse event Decreased white blood cell count, All Grades (Total (N = 15)): 10 (66.7) n (%)
- Treatment-related adverse event Decreased white blood cell count, Grade ≥3 (Total (N = 15)): 2 n (%) and 2 (13) n (%)
- Treatment-related adverse event Diarrhea, All Grades (Total (N = 15)): 3 (20.0) n (%)
- Treatment-related adverse event Diarrhea, Grade ≥3 (Total (N = 15)): 0 n (%)
- Treatment-related adverse event Increased GGT, All Grades (Total (N = 15)): 3 (20.0) n (%)
- Treatment-related adverse event Increased GGT, Grade ≥3 (Total (N = 15)): 0 n (%)
- Treatment-related adverse event Increased conjugated bilirubin, All Grades (Total (N = 15)): 4 (26.7) n (%)
- Treatment-related adverse event Increased conjugated bilirubin, Grade ≥3 (Total (N = 15)): 0 n (%)
- Treatment-related adverse event Nausea, All Grades (Total (N = 15)): 12 n (%) and 12 (80.0) n (%)
- Treatment-related adverse event Nausea, Grade ≥3 (Total (N = 15)): 1 n (%) and 1 (7) n (%)
- Treatment-related adverse event Prolonged electrocardiogram QT, All Grades (Total (N = 15)): 4 (26.7) n (%)
- Treatment-related adverse event Prolonged electrocardiogram QT, Grade ≥3 (Total (N = 15)): 1 n (%) and 1 (7) n (%)
- Treatment-related adverse event Somnolence, All Grades (Total (N = 15)): 3 (20.0) n (%)
- Treatment-related adverse event Somnolence, Grade ≥3 (Total (N = 15)): 0 n (%)
- Treatment-related adverse event Tachycardia, All Grades (Total (N = 15)): 3 (20.0) n (%)
- Treatment-related adverse event Tachycardia, Grade ≥3 (Total (N = 15)): 0 n (%)
- Treatment-related adverse event Vomiting, All Grades (Total (N = 15)): 4 (26.7) n (%)
- Treatment-related adverse event Vomiting, Grade ≥3 (Total (N = 15)): 1 n (%) and 1 (7) n (%)
- Dose-limiting toxicities (DLTs) (pamiparib dose range 20-60 mg BID, 23-day initial cycle): No dose‐limiting toxicities; also recorded: no DLTs
